{"source": "patent US6953800B2", "about": "“Use of selective antagonists of the α1B-adrenergic receptor for improvement of sexual dysfunction” (Recordati S.A. Chemical, priority 1999, dated 2005)", "key": {"hamster α1b-adrenoceptor": {"target": "T1, hamster α1b-adrenoceptor (Mesocricetus auratus, UniProt P18841)", "T1 construct": "expressed in transfected cells; host or cells: COS-7 cells (transient), membranes", "T1 sequence (P18841 1-515)": "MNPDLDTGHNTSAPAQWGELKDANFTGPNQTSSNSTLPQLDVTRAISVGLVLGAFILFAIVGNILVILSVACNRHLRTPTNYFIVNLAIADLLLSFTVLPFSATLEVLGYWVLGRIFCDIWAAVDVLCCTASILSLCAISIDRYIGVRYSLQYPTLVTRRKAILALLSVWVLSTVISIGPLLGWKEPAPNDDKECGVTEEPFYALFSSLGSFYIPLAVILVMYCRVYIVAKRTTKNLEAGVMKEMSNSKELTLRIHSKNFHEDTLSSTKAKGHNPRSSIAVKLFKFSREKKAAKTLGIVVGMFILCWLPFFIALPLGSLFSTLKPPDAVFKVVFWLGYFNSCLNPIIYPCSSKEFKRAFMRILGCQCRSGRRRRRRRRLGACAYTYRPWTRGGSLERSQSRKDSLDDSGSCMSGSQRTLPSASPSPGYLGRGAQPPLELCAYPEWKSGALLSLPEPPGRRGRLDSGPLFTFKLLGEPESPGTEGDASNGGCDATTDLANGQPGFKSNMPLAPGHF", "test": "[3H]Prazosin binding, hamster α1b-adrenoceptor in COS-7 cell membranes", "settings": "COS-7 membranes, read-out: Affinity (Ki) α1b, animal cloned receptors", "procedure": "(§1) The incubation was stopped by addition of ice-cold Tris buffer and rapid filtration through 0.2% polyethyleneimine pretreated Whatman GF/B or Schleicher & Schuell GF52 filters.\n(§2) Data are expressed as mean Ki. All patents and other references cited herein are incorporated by reference in their entirety."}, "anaesthetised dogs": {"system": "anaesthetised dogs", "test": "Intracavernous and blood pressure recording in dogs", "quoted_text": "Male beagle dogs were anaesthetised with pentobarbital sodium (i.v. Nembutal, 35 mg/kg for induction and 4 mg/kg/h for maintenance) and intubated with an endotracheal cuffed tube to facilitate free ventilation. A collateral of the left femoral vein was cannulated with a PE catheter for infusion of the anaesthetic. Systemic BP was monitored via a Mikro-tip 6F (Millar Instruments) pressure transducer introduced into the aortic arch through the right common carotid artery. ICP was measured by means of a 20-gauge needle placed into the left or right corpus cavernosum and the same needle was used for intracavernous injection of the drugs. The needle was attached to a catheter filled with heparinized saline (25 IU/mL). […] The compounds to be tested were injected intracavernously in a volume of 0.5 ml and, after each injection, the needle was flushed with 0.5 ml of saline. The vehicles for compound dissolution were tested before the first dose of each drug. The compounds were administered in a cumulative way, with a 30-minute interval between doses. ICP (mmHg) was measured at the peak effect after the administration of the compounds. The duration of tumescence (DT, min) was measured from the beginning of the rise of ICP over its basal value up to the return to baseline. The systolic blood pressure and diastolic blood pressure (mmHg) were measured at the peak effect after the administration of compounds, in order to evaluate the effects of the compounds on BP independently from the effects on ICP. Moreover, the systolic blood pressure was measured at the time of maximal ICP value after intracavernous injection, to evaluate the ICP/BP ratios. […] The data were reported as mean ±s.e. of the mean, or percent variation (±s.e.) of the basal values."}, "bovine α1a-adrenoceptor": {"target": "T2, bovine α1a-adrenoceptor (Bos taurus, UniProt P18130)", "T2 construct": "expressed in transfected cells; host or cells: COS-7 cells (transient), membranes", "T2 sequence (P18130 1-466)": "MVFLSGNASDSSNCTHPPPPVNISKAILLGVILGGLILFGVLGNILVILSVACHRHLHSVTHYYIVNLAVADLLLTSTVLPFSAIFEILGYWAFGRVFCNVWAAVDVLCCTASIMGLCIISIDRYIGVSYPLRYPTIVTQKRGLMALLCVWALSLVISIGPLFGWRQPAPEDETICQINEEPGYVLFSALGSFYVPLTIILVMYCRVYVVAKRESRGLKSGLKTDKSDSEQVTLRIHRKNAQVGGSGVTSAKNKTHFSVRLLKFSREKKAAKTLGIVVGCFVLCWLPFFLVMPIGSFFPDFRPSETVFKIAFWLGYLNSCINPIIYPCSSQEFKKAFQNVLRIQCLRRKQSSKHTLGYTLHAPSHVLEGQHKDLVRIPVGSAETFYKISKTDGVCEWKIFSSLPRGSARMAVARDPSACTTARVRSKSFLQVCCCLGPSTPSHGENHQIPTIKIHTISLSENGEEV", "test": "[3H]Prazosin binding, bovine α1a-adrenoceptor in COS-7 cell membranes", "settings": "bovine α1a, COS-7 membranes; read-out: Affinity (Ki) α1a, animal cloned receptors", "procedure": "as §1, §2"}, "anaesthetised rats": {"system": "anaesthetised rats", "test": "Intracavernous and blood pressure recording in rats", "format": "in vivo, rat", "procedure": "Rats were anaesthetised by an intraperitoneal injection of urethane (1.5 g/kg in sterile saline) and placed on an homeothermic blanket. Their temperature was maintained at 37° C. Rats were tracheotomized to facilitate spontaneous breathing and to prevent aspiration of saliva. A catheter filled with heparinized saline (25 IU/ml) was placed into the carotid to record mean blood pressure (BP, mmHg). The penis was desheathed and the corpora cavernosa were exposed. A 25-gauge stainless-steel needle was inserted into one corpus cavernosum to record intracavernous pressure (ICP in mmHg). […] Pressure catheters were connected to pressure transducers (Model 750, Elcomatic Ltd, Glasgow, UK).\nFollowing a resting period of 10 minutes, the compound solvent was delivered intracavernously (50 μl/injection). Then, increasing doses of one compound were injected every ten minutes by the same route. Five injections (one solvent plus four cumulative doses) were performed in each rat, and five rats were used for the study of one compound. For each injection and for each compound, mean BP averaged over the ten minutes following the injection was measured. The maximal ICP value reached during the ten-minute period following an injection was also recorded. In these experiments, all the compounds tested were dissolved and diluted in propylene glycol-Sorensen solvent."}, "rat α1d-adrenoceptor": {"target": "T3, rat α1d-adrenoceptor (Rattus norvegicus, UniProt P23944)", "T3 construct": "expressed in transfected cells; host or cells: COS-7 cells (transient), membranes", "T3 sequence (P23944 1-561)": "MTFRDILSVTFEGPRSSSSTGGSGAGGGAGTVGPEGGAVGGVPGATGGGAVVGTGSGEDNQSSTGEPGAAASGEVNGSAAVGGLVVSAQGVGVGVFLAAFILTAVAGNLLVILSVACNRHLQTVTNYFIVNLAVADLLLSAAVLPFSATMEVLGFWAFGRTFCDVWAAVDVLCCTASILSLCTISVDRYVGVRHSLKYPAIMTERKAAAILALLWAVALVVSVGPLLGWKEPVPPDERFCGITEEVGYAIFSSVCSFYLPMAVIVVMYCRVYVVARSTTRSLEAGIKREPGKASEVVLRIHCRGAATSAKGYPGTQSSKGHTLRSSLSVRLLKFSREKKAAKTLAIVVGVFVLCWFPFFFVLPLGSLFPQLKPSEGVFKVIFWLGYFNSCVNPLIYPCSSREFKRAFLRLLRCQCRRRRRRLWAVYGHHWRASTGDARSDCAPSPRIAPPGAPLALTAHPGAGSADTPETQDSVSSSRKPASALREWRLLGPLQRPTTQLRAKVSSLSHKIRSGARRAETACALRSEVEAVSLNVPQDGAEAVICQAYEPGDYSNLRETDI", "test": "[3H]Prazosin binding, rat α1d-adrenoceptor in COS-7 cell membranes", "settings": "COS-7 membranes, read-out: Affinity (Ki) α1d, animal cloned receptors", "procedure": "as §1, §2"}}, "note": "Values joined by “and” are separate entries in the source; they are usually repeats but may differ in a detail not shown here. Equal entries are not always repeated."}
{"smiles": "COc1cc2nc(N3CCN(C(=O)COc4c(OC)cccc4C(C)C)CC3)nc(N)c2cc1OC.Cl", "note": "[Compound A, 4-Amino-6,7-dimethoxy-2-[4-[(2-isopropyl-6-methoxyphenoxy)acetyl]-1-piperazinyl]quinazoline hydrochloride]", "values": [{"measurement": "Ki", "setting": "hamster α1b-adrenoceptor", "result": 0.45, "unit": "nM"}, {"measurement": "DBP", "setting": "anaesthetised dogs; 3 μg/kg intracavernous", "result": "116.0 ± 5.9", "unit": "mmHg"}, {"measurement": "DT (duration of tumescence)", "setting": "anaesthetised dogs; 3 μg/kg intracavernous", "result": "1.2 ± 0.2", "unit": "min"}, {"measurement": "ICP", "setting": "anaesthetised dogs; 3 μg/kg intracavernous", "result": "26.7 ± 8.7", "unit": "mmHg"}, {"measurement": "SBP", "setting": "anaesthetised dogs; 3 μg/kg intracavernous", "result": "155.3 ± 5.5", "unit": "mmHg"}, {"measurement": "SBPICP (SBP at the time of maximal ICP value)", "setting": "anaesthetised dogs; 3 μg/kg intracavernous", "result": "156.7 ± 6.8", "unit": "mmHg"}, {"measurement": "increase of ICP in comparison with basal ICP values", "setting": "anaesthetised dogs; 3 μg/kg intracavernous", "result": 12, "unit": "mmHg"}, {"measurement": "DBP", "setting": "anaesthetised dogs; 10 μg/kg intracavernous", "result": "120.0 ± 5.9", "unit": "mmHg"}, {"measurement": "DT (duration of tumescence)", "setting": "anaesthetised dogs; 10 μg/kg intracavernous", "result": "15.0 ± 8.4", "unit": "min"}, {"measurement": "ICP", "setting": "anaesthetised dogs; 10 μg/kg intracavernous", "result": "75.0 ± 32.4", "unit": "mmHg"}, {"measurement": "SBP", "setting": "anaesthetised dogs; 10 μg/kg intracavernous", "result": "157.5 ± 6.6", "unit": "mmHg"}, {"measurement": "SBPICP (SBP at the time of maximal ICP value)", "setting": "anaesthetised dogs; 10 μg/kg intracavernous", "result": "158.5 ± 7.4", "unit": "mmHg"}, {"measurement": "DBP", "setting": "anaesthetised dogs; 30 μg/kg intracavernous", "result": "117.5 ± 6.5", "unit": "mmHg"}, {"measurement": "DT (duration of tumescence)", "setting": "anaesthetised dogs; 30 μg/kg intracavernous", "result": "8.3 ± 3.2", "unit": "min"}, {"measurement": "ICP", "setting": "anaesthetised dogs; 30 μg/kg intracavernous", "result": "91.5 ± 26.9", "unit": "mmHg"}, {"measurement": "SBP", "setting": "anaesthetised dogs; 30 μg/kg intracavernous", "result": "154.0 ± 6.6", "unit": "mmHg"}, {"measurement": "SBPICP (SBP at the time of maximal ICP value)", "setting": "anaesthetised dogs; 30 μg/kg intracavernous", "result": "156.5 ± 5.9", "unit": "mmHg"}, {"measurement": "DBP", "setting": "anaesthetised dogs; 100 μg/kg intracavernous", "result": "113.0 ± 7.3", "unit": "mmHg"}, {"measurement": "DT (duration of tumescence)", "setting": "anaesthetised dogs; 100 μg/kg intracavernous", "result": "13.7 ± 5.6", "unit": "min"}, {"measurement": "ICP", "setting": "anaesthetised dogs; 100 μg/kg intracavernous", "result": "95.0 ± 23.3", "unit": "mmHg"}, {"measurement": "SBP", "setting": "anaesthetised dogs; 100 μg/kg intracavernous", "result": "147.5 ± 7.6", "unit": "mmHg"}, {"measurement": "SBPICP (SBP at the time of maximal ICP value)", "setting": "anaesthetised dogs; 100 μg/kg intracavernous", "result": "148.5 ± 6.0", "unit": "mmHg"}, {"measurement": "DBP", "setting": "anaesthetised dogs; 300 μg/kg intracavernous", "result": "107.5 ± 7.4", "unit": "mmHg"}, {"measurement": "ICP", "setting": "anaesthetised dogs; 300 μg/kg intracavernous", "result": "111.0 ± 10.9", "unit": "mmHg"}, {"measurement": "SBP", "setting": "anaesthetised dogs; 300 μg/kg intracavernous", "result": "140.0 ± 7.4", "unit": "mmHg"}, {"measurement": "SBPICP (SBP at the time of maximal ICP value)", "setting": "anaesthetised dogs; 300 μg/kg intracavernous", "result": "142.0 ± 6.5", "unit": "mmHg"}, {"measurement": "increase of ICP in comparison with basal ICP values", "setting": "anaesthetised dogs; 300 μg/kg intracavernous", "result": 96.5, "unit": "mmHg"}, {"measurement": "duration of action compared with reference compounds", "setting": "anaesthetised dogs; Compound B at the highest dose tested", "result": "higher than that of the reference compounds tested"}, {"measurement": "hypotension computed on diastolic blood pressure (change)", "setting": "anaesthetised dogs; dose-dependent over 3-300 μg/kg", "result": "−10 to −19", "unit": "mmHg"}, {"measurement": "decrease of blood pressure accompanying the ICP/BP increase (FIG. 2)", "setting": "anaesthetised dogs; intracavernous", "result": "≤ 20", "unit": "%"}, {"measurement": "effect on ICP (in words)", "setting": "anaesthetised dogs; intracavernous injection", "result": "dose-dependently increased ICP"}, {"measurement": "Ki", "setting": "bovine α1a-adrenoceptor", "result": 7.5, "unit": "nM"}, {"measurement": "BP", "setting": "anaesthetised rats; 10 μg/kg intracavernous", "result": "91.3 ± 9.4", "unit": "mmHg"}, {"measurement": "ICP", "setting": "anaesthetised rats; 10 μg/kg intracavernous", "result": "36.8 ± 8.7", "unit": "mmHg"}, {"measurement": "BP", "setting": "anaesthetised rats; 30 μg/kg intracavernous", "result": "82.7 ± 11.0", "unit": "mmHg"}, {"measurement": "ICP", "setting": "anaesthetised rats; 30 μg/kg intracavernous", "result": "37.6 ± 10.1", "unit": "mmHg"}, {"measurement": "BP", "setting": "anaesthetised rats; 100 μg/kg intracavernous", "result": "74.8 ± 9.3", "unit": "mmHg"}, {"measurement": "ICP", "setting": "anaesthetised rats; 100 μg/kg intracavernous", "result": "38.7 ± 12.3", "unit": "mmHg"}, {"measurement": "BP", "setting": "anaesthetised rats; 300 μg/kg intracavernous", "result": "72.5 ± 5.6", "unit": "mmHg"}, {"measurement": "ICP", "setting": "anaesthetised rats; 300 μg/kg intracavernous, hydrochloride", "result": "50.6 mmHg and 50.6 ± 13.7 mmHg"}, {"measurement": "effect on ICP (in words)", "setting": "anaesthetised rats; intracavernous injection", "result": "dose-dependently increased ICP"}, {"measurement": "decrease of blood pressure accompanying the ICP/BP increase (FIG. 1)", "setting": "anaesthetised rats; intracavernous, 10-300 μg", "result": "≤ 20", "unit": "%"}, {"measurement": "decrease of BP", "setting": "anaesthetised rats; intracavernous, over the dose range up to 300 μg/kg", "result": "about 30%"}, {"measurement": "Ki", "setting": "rat α1d-adrenoceptor", "result": 10.3, "unit": "nM"}]}
